Consider twelve compounds from patent US20050054647A1, “New pharmaceutical combination” (priority 2002, published 2005).

One data set concerns CC531 cells. Description: Colorectal carcinoma model: CC531 cells implanted into the liver of Wag rats, tumor volume, metastasis and tolerability. The conditions noted are these: for Tumor Volume: % ± SD compared to untreated controls, CC531 liver tumor in Wag rats, treatment from 7th to 28th postoperative day; for tumor growth / primary tumor volume (in words): treatment day 7-28. In kind it is in vivo.

Description for CC531 cells: ombination of 1-(4-Chloroanilino)-4-(4-pyridylmethyl)phthalazine drochloride (ZK) and 3-pyridylmethyl-N-{4-[(2-amino-phenyl)-rbamoyl]benzyl}carbamate (MS) with Tamoxifen (TAM)
C cells CC531 were cultured in vitro (10th-15th passage) and implanted into e liver of adult (250 g) immuncompetent Wag rats (n/group=12). Between the venth and the 28th postoperative day the rats received either a placebo erapy, the conventional chemotherapy 5-fluoruracil (5FU, 10 mg/kg) or the llowing biomodulators alone or in combination: the VEGF receptor antagonist (4-Chloroanilino)-4-(4-pyridylmethyl)phthalazine hydrochloride (ZK) 0mg/kg), the histone deacetylase inhibitor 3-pyridylmethyl-N-{4-[(2-amino-enyl)carbamoyl]benzyl}carbamate (MS) dose and Tamoxifen (TAM) (TAM: g/kg KG i.p.). Apoptosis rate was assessed using a the TUNEL method on raformaldehyd fixed tumor material.

Take `Nc1ccccc1NC(=O)c1ccc(CNC(=O)OCc2cccnc2)cc1` [3-pyridylmethyl-N-{4-[(2-amino-phenyl)-carbamoyl]benzyl}-carbamate]: the “Tumor Volume” value in the data set with CC531 cells came to 80 ± 23%.
Turning to `O=c1[nH]cc(F)c(=O)[nH]1` [5-Fluorouracil (5FU), 5-Fluorouracil, reference compound], in the data set with CC531 cells, the “Tumor Volume” value was determined as 85 ± 19% and the “tumor growth / primary tumor volume (in words)” value is listed as “did not reduce tumor growth”.
Take `Nc1ccccc1NC(=O)c1ccc(CNC(=O)OCc2cccnc2)cc1` [MS, N-(2-aminophenyl)-4-[N-(pyridin-3-yl)methoxycarbonylaminomethyl]benzamide]: the “tumor growth / primary tumor volume (in words)” value in the data set on CC531 cells is given as “no significant reduction”.
Take `CC/C(=C(\c1ccccc1)c1ccc(OCCN(C)C)cc1)c1ccccc1` [Tamoxifen (TAM), (Z)-2-[p-(1,2-diphenyl-1-butenyl)phenoxy]-N,N-dimethylethylamine, reference compound]: in the data set with CC531 cells, the “Tumor Volume” value came to 90 ± 10% and the “tumor growth / primary tumor volume (in words)” value is on record as “no significant reduction”.
In the case of `Clc1ccc(Nc2nnc(Cc3ccncc3)c3ccccc23)cc1.O=C(O)CCC(=O)O` [K, (4-Chlorophenyl)[4-(4-pyridylmethyl)-phthalazin-1-yl]-ammonium hydrogen succinate], in the data set with CC531 cells, the “Tumor Volume” value was determined as 94 ± 20% and the “tumor growth / primary tumor volume (in words)” value is reported as “no significant reduction”.
In turn, `CC(=O)Nc1ccc(Nc2nnc(Cc3ccncc3)c3ccccc23)cc1` [Example A-11, 1-(4-Acetaminoanilino)-4-(4-pyridylmethyl)phthalazine] came in with a melting point of more than 270 °C.
In the case of `CC(C)c1ccc(Nc2nnc(Cc3ccncc3)c3ccccc23)cc1.Cl.Cl`, the melting point is more than 250 °C.
Same read-out and setting: the result for `Nc1ccccc1NC(=O)c1ccc(-n2cc(COc3ccc([N+](=O)[O-])cc3)oc2=O)cc1` [Example 137, N-(2-aminophenyl)-4-[5-(4-nitrophenoxy)methyl-1,3-oxazolin-2-on-3-yl]benzamide] reads 162 to 164 °C.
Still for that read-out and setting: the value for `Cl.Nc1ccc2c(Cc3ccncc3)nnc(Nc3ccc(Cl)cc3)c2c1` was more than 300 °C; that for `Cc1ncsc1CCOC(=O)NCc1ccc(C(=O)Nc2ccccc2N)cc1` [Example 64, N-(2-aminophenyl)-4-[N-[2-(4-methylthiazol-5-yl)ethoxycarbonyl]aminomethyl]benzamide] was 130 to 133 °C.
On the same count and under the same terms, the result for `COC(=O)c1ccc(C(=O)NCc2ccc(C(=O)Nc3ccccc3N)cc2)cc1` [Example 11, N-(2-aminophenyl)-4-[N-(4-methoxycarbonylbenzoyl)aminomethyl]benzamide] reads 204 to 209 °C (dec.); that for `Nc1ccccc1NC(=O)c1ccc(-n2cc(COc3cccnc3)oc2=O)cc1` [Example 139, N-(2-aminophenyl)-4-[5-(pyridin-3-yl)oxymethyl-1,3-oxazolin-2-on-3-yl]benzamide], 199 to 201 °C.

By melting point is commonly meant the temperature of the solid-liquid transition.
